Reference: patent publication US20080241215A1, “LOCAL VASCULAR DELIVERY OF PROBUCOL ALONE OR IN COMBINATION WITH SIROLIMUS TO TREAT RESTENOSIS, VULNERABLE PLAQUE, AAA AND STROKE” (priority 2007, published 2008)

Columns and labels:
[1] = Porcine drug elution PK studies (in vivo release from stent coating); details: after eight (8) days of implantation; single-layer sirolimus/cilostazol EVA/BMA coating with 100 μg BMA overcoat (FIG. 83)
[2] = In vitro release kinetics from stent coating; type: physicochemical; details: single-layer sirolimus/cilostazol EVA/BMA coating with 100 μg BMA overcoat (FIG. 83)
From the text: In the study, the rapamycin and Panzem® are incorporated into different layers of a polymeric coating. In this study, a Bx Velocity stent is coated with a four hundred microgram inner layer and a three hundred microgram outer layer. The inner layer comprises forty-five percent Panzem® and fifty-five percent EVA/BMA (50/50). […] There is no topcoat of just polymer in this study. Curve 7100 illustrates the release kinetics of Panzem® from the coating.
Another critical parameter for the performance of the thrombus resistance of a device coated with cilostazol is the duration of the drug release from the coating. This is of particular significance in the two weeks after device implantation. In the porcine drug elution PK studies of the dual drug eluting coating, both cilostazol and sirolius were slowly released from the coating, resulting in a sustained drug release profile. The purpose of the porcine PK study is to assess the local pharmacokinetics of a drug eluting stent at a given implantation time. Normally three stents are implanted in three different coronary arteries in a pig for a given time point and then retrieved for total drug recovery analysis. […] The stents are extracted and the total amount of drug remaining on the stents is determined by analysis utilizing HPLC (high performance liquid chromatography) for total drug amount. […]

[3] = Drug concentration in liquid formulations (liquid chromatography); type: physicochemical; details: ethanol, Vitamin E TPGS and water formulation, ethanol less than two percent
Procedure: The concentrations of each constituent were determined by liquid chromatography and are presented as weight by volume figures.
In another exemplary embodiment, the liquid formulation of sirolimus comprises water and ethanol as co-solvents and Vitamin E TPGS as the excipient. The liquid formulation was created utilizing the following process. Two hundred milligrams of sirolimus and two grams of ethanol were added to a pre-weighed twenty milliliter scintillation vial. The vial was vortexed and sonicated until the sirolimus was completely dissolved. Approximately six hundred milligrams of Vitamin E TPGS was then added to the solution of ethanol and sirolimus. The vial was vortexed again until a clear yellowish solution was obtained. Nitrogen gas was then used to reduce the amount of ethanol in the vial to approximately two hundred twenty-nine milligrams. In a separate vial, three hundred milligrams of Vitamin E TPGS was dissolved in eleven milliliters of purified water while undergoing vortexing. The Vitamin E TPGS and water solution was then added to the first vial containing the sirolimus, Vitamin E TPGS and ethanol. The first vial was then vortexed vigorously and continuously for three minutes.
In another exemplary embodiment, a liquid formulation of CCI-779, a sirolimus analog, is prepared utilizing ethanol, Vitamin E TPGS and water. […]

[4] = system: coronary arteries (angioplasty site); experiment: IVUS substudy of the MVP restenosis trial; type: in vivo, human; details: for EEM area / Lumen area / Wall area: per segment, mean ± SD
Procedure: The present invention concerns the IVUS substudy from the MVP restenosis trial. MVP was a double-blind placebo-controlled randomized clinical trial with four study groups. The protocol was approved by the Montreal Heart Institute institutional review board. The MVP study design, inclusion and exclusion criteria have been previously described (N Engl J Med 1997; 365-372). Briefly, patients referred for elective coronary angioplasty were evaluated at least 30 days prior to their scheduled procedure. Eligible patients were asked to provide written informed consent. Patients were eligible if they were scheduled to undergo standard balloon angioplasty on at least one native coronary artery and had at least one de novo target lesion with luminal narrowing of fifty percent or more by caliper measurements.
Beginning thirty days prior to scheduled angioplasty, patients were randomly assigned to receive either probucol alone, multivitamins alone, the combination of probucol and multivitamins, or placebo. Probucol 500 mg or matched placebo was administered twice daily. The multivitamin complex, consisting of vitamin E 700 IU, vitamin C 500 mg and beta-carotene 30,000 IU, or matched placebo was also administered in one tablet twice daily. All patients received an extra dose of probucol 1000 mg and/or vitamin E 2000 IU and/or matched placebos twelve hours before angioplasty, according to randomization assignment. […] All patients received aspirin 325 mg daily started at least thirty days before procedure and continued for the study period. Balloon angioplasty was performed according to standard techniques. Intracoronary nitroglycerin (0.3 mg) was given for each target artery for both pre- and post-dilatation angiography and at follow-up. The sequence of contrast injections with the exact degree of angulation was recorded and used for every angiogram. Coronary arteriograms (pre-, post-procedure, and final follow-up) were analyzed together using the Coronary Measurement System (CMS), as previously reported. Patient follow-up included clinical evaluation, exercise treadmill testing, blood chemistry, pill count and drug level measurements, and dietary assessment and intervention. Patients were readmitted for follow-up coronary angiography at five to seven months. Patients in whom arteriography was performed for clinical reasons before the fifth month returned for repeat angiographic examination at five to seven months if no definite angiographic restenosis was present on at least one dilated site. During follow-up, patients with recurrence or exacerbation of anginal symptoms were treated with medical therapy or revascularization procedures (reangioplasty or Coronary Bypass Surgery) as clinically indicated. Patients with angiographic restenosis (lesion>50%. at follow-up) without clinical evidence of ischemia were not subjected to further interventional procedures.
IVUS examinations were performed using 30 MHZ, 3.5 French mechanical (1800 rpm) ultrasound catheters (Boston Scientific, Natick, Mass.) and a dedicated imaging console (Hewlett Packard, Andover, Mass.) (Curr Opin Cardiol 1994; 9:627-633). In six patients, both examinations were performed using 20 MHZ, 3.5 French 64-element IVUS catheters (Endosonics, Pleasanton, Calif.). IVUS studies were first performed after coronary angioplasty (after final balloon inflation) and then after follow-up angiography (before any subsequent intervention) and were always preceded by administration of intracoronary nitroglycerin (0.3 mg). IVUS imaging was monitored by an experienced cardiologist, but the angioplasty operator was blinded to ultrasound results to avoid altering standard balloon angioplasty practice. The IVUS catheter was advanced distal to the dilated site to an easily recognizable landmark, most often a side branch, which was noted and used for follow-up IVUS examination. One angiographic view was recorded on videotape before beginning pullback of the IVUS catheter. […]

LDL = LDL peroxidation lag phase ex vivo (diene conjugates after addition of copper ions); type: biochemical, human; details: treatment for one month; compared with vitamins alone or the combination of probucol and vitamins; preliminary results
[5] = system: patients undergoing coronary angioplasty; experiment: MVP randomized clinical trial (angiographic and clinical endpoints); type: in vivo, human
From the text: In addition, the invention enables the skilled practitioner to use probucol in conjunction with other percutaneous coronary interventions such as stenting if it is deemed appropriate. The present invention concerns the IVUS substudy from the MVP restenosis trial. MVP was a double-blind placebo-controlled randomized clinical trial with four study groups. The protocol was approved by the Montreal Heart Institute institutional review board. The MVP study design, inclusion and exclusion criteria have been previously described (N Engl J Med 1997; 365-372). Briefly, patients referred for elective coronary angioplasty were evaluated at least 30 days prior to their scheduled procedure. Eligible patients were asked to provide written informed consent. Patients were eligible if they were scheduled to undergo standard balloon angioplasty on at least one native coronary artery and had at least one de novo target lesion with luminal narrowing of fifty percent or more by caliper measurements. Beginning thirty days prior to scheduled angioplasty, patients were randomly assigned to receive either probucol alone, multivitamins alone, the combination of probucol and multivitamins, or placebo. Probucol 500 mg or matched placebo was administered twice daily. The multivitamin complex, consisting of vitamin E 700 IU, vitamin C 500 mg and beta-carotene 30,000 IU, or matched placebo was also administered in one tablet twice daily. […] Balloon angioplasty was performed according to standard techniques. […] The sequence of contrast injections with the exact degree of angulation was recorded and used for every angiogram. Coronary arteriograms (pre-, post-procedure, and final follow-up) were analyzed together using the Coronary Measurement System (CMS), as previously reported. Patient follow-up included clinical evaluation, exercise treadmill testing, blood chemistry, pill count and drug level measurements, and dietary assessment and intervention. Patients were readmitted for follow-up coronary angiography at five to seven months. Patients in whom arteriography was performed for clinical reasons before the fifth month returned for repeat angiographic examination at five to seven months if no definite angiographic restenosis was present on at least one dilated site. During follow-up, patients with recurrence or exacerbation of anginal symptoms were treated with medical therapy or revascularization procedures (reangioplasty or Coronary Bypass Surgery) as clinically indicated. Patients with angiographic restenosis (lesion>50%. at follow-up) without clinical evidence of ischemia were not subjected to further interventional procedures.

[6] = Follow-up Post PTCA (follow-up minus after angioplasty), listed as Probucol Alone
[7] = Follow-up Post PTCA, efficacy analysis in compliant patients
[8] = Follow-up, listed as Probucol Alone
[9] = probucol given alone, compared to placebo

In the case of `O=C1CCc2cc(OCCCCc3nnnn3C3CCCCC3)ccc2N1` [cilostazol, 6[4-(1-cyclohexyl-1H-tetrazol-5-yl)-butoxy]-3,4-dihydro-2-(1H)-quinolinone], the “drug remaining in the drug coating” value [1] is reported as about 80% and the “in vitro drug release” value [2] is reported as about 35%.
For `CO[C@H]1C[C@@H]2CC[C@@H](C)[C@@](O)(O2)C(=O)C(=O)N2CCCC[C@H]2C(=O)O[C@H]([C@H](C)C[C@@H]2CC[C@@H](OC(=O)C(C)(CO)CO)[C@H](OC)C2)CC(=O)[C@H](C)/C=C(\C)[C@@H](O)[C@@H](OC)C(=O)[C@H](C)C[C@H](C)/C=C/C=C/C=C/1C` [CCI-779], the “concentration in the final solution (HPLC assay)” value [3] was 15000 µg/mL.
In the case of `CC(C)(Sc1cc(C(C)(C)C)c(O)c(C(C)(C)C)c1)Sc1cc(C(C)(C)C)c(O)c(C(C)(C)C)c1` [probucol, 4,4′-([1-methylethylidene)bis(thio)]bis-[2,6-bis(1,1-dimethylethyl)phenol]], the EEM area ([4]; After Angioplasty) is reported as 12.20 ± 4.66 mm^2, the Lumen area ([4]; After Angioplasty) is reported as 4.62 ± 1.59 mm^2 and the Wall area ([4]; After Angioplasty) is reported as 7.57 ± 3.98 mm^2. The “Lumen area, change” value ([4]; Follow-up Post PTCA (follow-up minus after angioplasty)) was −0.15 ± 1.70 mm^2, the “EEM area, change” value [4, 6] was 1.74 ± 1.80 mm^2 and the “Wall area, change” value [4, 6] was 1.89 ± 1.87 mm^2. For the same compound, the “EEM area, change” value ([4]; Follow-up Post PTCA (follow-up minus after angioplasty), listed as probucol alone) was 1.74 mm^2, the “EEM area, change” value [4, 7] was 1.74 ± 1.80 mm^2 and the “Lumen area, change” value [4, 7] was −0.15 ± 1.70 mm^2. The “Wall area, change” value [4, 7] was 1.89 ± 1.87 mm^2, the EEM area [4, 8] was 13.93 ± 4.74 mm^2 and the Lumen area [4, 8] was 4.47 ± 1.93 mm^2. The Wall area [4, 8] was 9.46 ± 4.36 mm^2, the “patients with an increase in EEM area of at least 1 mm^2 at follow-up” value ([4]; in vivo) was 72.0% and the “increase in vessel enlargement” value ([4]; probucol only compared with placebo) was “seven hundred-thirty”. The “protection against LDL oxidation (lag phase for LDL peroxidation)” value (LDL) was “significantly greater protection against LDL oxidation”, the patients with restenosis ([5]; MVP study) was “over twenty” and the “reduction in the need for repeat angioplasty” value ([5]; probucol given alone, at 6 month, compared to placebo) was “fifty-eight”. For the same compound, the “reduction in angiographic lumen loss” value [5, 9] was “sixty-eight” and the “reduction in restenosis rate per segment” value [5, 9] was “forty-seven”.
